Experimental findings from patent US20140271756A1, “Controlled Release of Microbiocides” (priority 2013, published 2014) are described below.

A short description of this data set: benzyltriazole release flux rate test of membrane in 20 gallons tap water. In kind it is physicochemical. As to conditions: 80° F., 100 hour period. The protocol: The microbiocide component release flux rate through the membrane is defined as milligrams of microbiocide component released per hour through one square millimeter of membrane or mg./hr./mm^2. Because the release flux rate varies over a wide range and is at least sometimes relatively slow, a test using benzyltriazole has been developed to quantify certain release flux rates that may be useful in accordance with the present invention. This test is conducted as follows.
A tank with twenty (20) gallons of tap water is provided, together with a recirculating heater to give mixing and temperature control. […] Water samples are collected at regular intervals over a 100 hour period and are measured for benzyltriazole content. From these measurements, the benzyltriazole release flux rate of the membrane is determined. To illustrate, suppose 300 mg of benzyltriazole is released through 351 mm^2 of membrane area (exposed through an opening in the outermost wall of the container) in 100 hours. The benzyltriazole release flux rate

On to benzyltriazole, for which the “benzyltriazole release flux rate” value reads like this: (membrane 27 of container 10, cellulose nitrate, average pore size about 20 to about 25 microns) “about 0.049 mg/hr/min^2”; (membrane layers 127 of container 110, cellulose nitrate, pore size about 8 microns) “about 0.025 mg/hr./mm^2”.
